Measurements published in publication PMC9656702, “Unveiling a New Selenocyanate as a Multitarget Candidate with Anticancer, Antileishmanial and Antibacterial Potential” (Molecules, 2022).
Read-outs that look alike come from different tables or passages of the source.

Columns and labels:
MDA-MB-231 = assay: Antiproliferative MTT assay, MDA-MB-231 breast cancer cells; type: cell-based, human; conditions: Homo sapiens, MDA-MB-231; MTT assay, 48 h, mean ± SD; read-out: IC50 MDA-MB-231
Method: (§1) The antiproliferative activities of the cinnamyl and benzodioxyl derivatives were assessed against six human cell lines of three different types of cancer (colon, lung, and breast) using the 3-(4,5-dimethylthiazol-2-yl)-2,5-diphenyltetrazolium bromide (MTT) assay at seven concentrations for 48 h. The results are expressed as the IC50 values and are outlined in Table 1.
(§2) The cell lines were obtained from the American Type Culture Collection (ATCC). All the cancer cell lines (HT-29, HCT-116, H1299, HTB-54, MDA-MB-231 and MCF-7) and the nontumorigenic cells (184B5) were maintained in RPMI 1640 medium (Gibco), supplemented with 10% fetal bovine serum (FBS; Gibco) and 1% antibiotics (10.00 units/mL penicillin and 10.00 mg/mL streptomycin; Gibco). Cells were preserved in tissue culture flasks at 37 °C and 5% CO2. Culture medium was replaced every three days.
(§3) The cytotoxic effect of each compound was initially tested at seven different concentrations ranging between 0.5 and 100 µM in the cell lines mentioned above. The cells were seeded (1 × 10^4 cells per well) in 96-well plates and incubated at 37 °C and 5% CO2 for 24 h. After attachment, cells were treated with either dimethyl sulfoxide (DMSO) or increasing concentrations of the corresponding selenocompound for 48 h. The effect of the compounds on cell viability was determined by the MTT assay. In brief, 20 µL of MTT (5 mg/mL) was added to each well 2.5 h prior to experiment termination. At the end of the incubation, the medium was removed, and the formazan crystals were dissolved in 50 µL of DMSO. Absorbance was measured at 550 nm on a microplate reader. IC50 values were calculated using OriginPro 8.5.1. software by nonlinear curve fitting. Selectivity indexes were calculated as the ratio of the IC50 values determined for the nonmalignant and the tumoral cells in the breast cell lines (IC50 (184B5)/IC50 (MDA-MB-231) and IC50 (184B5)/IC50 (MCF-7)). Data were obtained from at least three independent experiments performed in triplicates.

[1] = tested on: Leishmania infantum promastigotes; assay: Parasite viability MTT assay, L. infantum promastigotes; type: cell-based; conditions: Leishmania infantum, 48 h, promastigotes, MTT assay, mean ± SD, read-out: IC50 Leishmania infantum
Method: (§4) The cytotoxic activities of all the derivatives against Leishmania major and Leishmania infantum promastigotes were studied by the MTT assay after exposing the parasites to five different concentrations of each compound for 48 h. Miltefosine and paromomycin, two currently available drugs for the treatment of leishmaniasis, were used as positive controls.
(§5) L. major (clone VI, MHOM/IL/80/Friendlin) and L. infantum (BCN-150) promastigotes were grown in continuous stirred M199 1X medium (Sigma, St Louis, MO, USA) at 26 °C supplemented with 25 mM HEPES (pH 7.2), 10% heat-inactivated FBS (Gibco, Gaithersburg, MD, USA), 0.1 mM adenine, 0.0005% (w/v) hemin, 0.0001% (w/v) biotin, 100 UI/mL penicillin and […] streptomycin (Gibco, Gaithersburg, MD, USA). Media were changed before each experiment to achieve exponential growth.
(§6) The antileishmanial activity was assessed by the MTT assay as previously described. Briefly, 3 × 10^6 promastigotes of both Leishmania strains were placed into a 96-well plate with supplemented M199 1X medium during their logarithmic growth phase. The parasites were treated with five increasing concentrations of the compounds ranging between 0.1 and 1000 µM at 26 °C for 48 h. At the termination point, 20 µL of MTT (5 mg/mL) was added and further incubated for 4 h. The resultant formazan crystals formed were dissolved in 80 µL of DMSO and the absorbance was measured at 550 nm on a microplate reader. IC50 values were calculated using OriginPro 8.5.1. software by nonlinear curve fitting. Miltefosine and paromomycin were used as reference drugs. Data were obtained from at least three independent experiments performed in triplicates.

HCT-116 = assay: Antiproliferative MTT assay, HCT-116 colon cancer cells; type: cell-based, human; conditions: MTT assay, 48 h, mean ± SD, read-out: IC50 HCT-116
Method: as §1, §2, §3

MCF-7 = assay: Antiproliferative MTT assay, MCF-7 breast cancer cells; type: cell-based, human; conditions: MTT assay, 48 h, mean ± SD
Method: as §1, §2, §3

184B5 = assay: MTT assay in nonmalignant mammary gland cells 184B5; type: cell-based; conditions: nontumorigenic cells, MTT assay, 48 h, mean ± SD
Method: To assess their possible selectivity, the synthesized selenocompounds were then tested in a mammary gland (184B5) nonmalignant cell line, and the selectivity indexes (SI) were determined as the ratio of the IC50 values obtained for the nonmalignant cells and the homolog cancer cells.
as §2, §3

HT-29 = assay: Antiproliferative MTT assay, HT-29 colon cancer cells; type: cell-based, human; conditions: MTT assay, 48 h, mean ± SD, read-out: IC50 HT-29
Method: as §1, §2, §3

S. epidermidis = assay: MIC and MBC assay, S. epidermidis; type: cell-based, Staphylococcus epidermidis; conditions: Staphylococcus epidermidis; Gram-positive, 24 h at 37 °C; read-out: MIC S. epidermidis
Method: (§7) The minimum inhibitory concentration (MIC) and the minimum bactericidal concentration (MBC) values of the selenocompounds were determined in a panel of six bacterial strains as a first approach to assess their antibacterial activity. Thus, the synthesized derivatives were tested against the Gram-negative bacteria Escherichia coli (E. coli), Klebsiella pneumoniae (K. pneumoniae) and Citrobacter freundii (C. freundii); and the Gram-positive bacteria Staphylococcus aureus (S. aureus), Streptococcus faecalis (S. faecalis), and Staphylococcus epidermidis (S. epidermidis). […]
(§8) All the selenocompounds were screened for their in vitro inhibitory activity against three Gram-negative (E. coli, K. pneumoniae and C. freundii) and three Gram-positive (S. aureus, S. faecalis and S. epidermidis) bacteria. Bacterial strains were kindly provided by the Department of Microbiology and Parasitology of the University of Navarra. The bacterial cells were grown in tryptic soy agar (TSA) plates and maintained at 4 °C.
(§9) The compounds were firstly dissolved in DMSO and serially diluted in a 96-well plate in tryptic soy broth (TSB) with eleven concentrations ranging from 400 µg/mL to 0.4 µg/mL with a final volume of 100 µL. Subsequently, 100 µL of a diluted suspension of bacterial cells with an optical density of 0.125 measured at 600 nm in TSB (inoculum of approximately 10^5 CFU/mL) was added to each well and incubated at 37 °C for 24 h. After the incubation period, each well was analyzed for the presence or absence of visual growth of bacterial cells. The lowest concentration of the test compound at which no visible growth occurred was determined as the MIC values. After incubation, 10 µL of the bacterial suspension from each well that presented antibacterial activity was added to divided TSA plates and incubated at 37 °C overnight.

S. aureus = assay: MIC and MBC assay, S. aureus; type: cell-based, Staphylococcus aureus; conditions: Staphylococcus aureus; Gram-positive, 24 h at 37 °C
Method: as §7, §8, §9

HTB-54 = assay: Antiproliferative MTT assay, HTB-54 lung cancer cells; type: cell-based, human; conditions: Homo sapiens, HTB-54; MTT assay, 48 h, mean ± SD; read-out: IC50 HTB-54
Method: as §1, §2, §3

E. coli = assay: MIC and MBC assay, E. coli; type: cell-based, Escherichia coli; conditions: Escherichia coli; Gram-negative, 24 h at 37 °C
Method: as §7, §8, §9

C. freundii = assay: MIC and MBC assay, C. freundii; type: cell-based, Citrobacter freundii; conditions: Citrobacter freundii; Gram-negative, 24 h at 37 °C; read-out: MIC C. freundii
Method: as §7, §8, §9

S. faecalis = assay: MIC and MBC assay, S. faecalis; type: cell-based, Streptococcus faecalis; conditions: Enterococcus faecalis; Gram-positive, 24 h at 37 °C; read-out: MIC S. faecalis
Method: as §7, §8, §9

K. pneumoniae = assay: MIC and MBC assay, K. pneumoniae; type: cell-based, Klebsiella pneumoniae; conditions: Klebsiella pneumoniae; Gram-negative, 24 h at 37 °C; read-out: MIC K. pneumoniae
Method: as §7, §8, §9

[2] = tested on: Leishmania major promastigotes; assay: Parasite viability MTT assay, L. major promastigotes; type: cell-based; conditions: Leishmania major, 48 h, promastigotes, MTT assay, mean ± SD, read-out: IC50 Leishmania major
Method: as §4, §5, §6

SMILES | IC50 (MDA-MB-231) [µM] | IC50 [1] [µM] | IC50 (HCT-116; Homo sapiens, HCT-116, 48 h) [µM] | IC50 (HCT-116) [µM] | IC50 (MCF-7; Homo sapiens, MCF7, read-out: IC50 MCF-7) [µM] | IC50 MCF-7 (MCF-7) | IC50 (184B5; Homo sapiens, 184B5, 48 h, read-out: IC50 184B5) [µM] | IC50 184B5 (184B5) | IC50 (HT-29; Homo sapiens, HT-29, 48 h) [µM] | IC50 (HT-29) [µM] | MIC (S. epidermidis) [µg/mL] | MIC (S. aureus) [µg/mL] | IC50 (HTB-54) [µM] | MIC (E. coli) [µg/mL] | MIC (C. freundii) [µg/mL] | MIC (S. faecalis) [µg/mL] | melting point [°C] | MIC (K. pneumoniae) [µg/mL] | IC50 [2] [µM]
c1cc2c(cc1C[Se][Se]Cc1ccc3c(c1)OCO3)OCO2 [Compound 2b, 1,2-Bis(benzo[d][1,3]dioxol-5-ylmethyl)diselenide] | 46.6 ± 12.1 | 56.1 ± 8.1 | ~11 | 11.3 ± 1 | > 100 | completely inactive | > 100 | did not display any activity | < 12 | 10.1 ± 1.2 | > 200 | > 200 | 41.6 ± 9.4 | > 200 | > 200 | > 200 | 78 to 80 | > 200 | 49.4 ± 16.7
NC[C@@H]1O[C@H](O[C@H]2[C@@H](O)[C@H](O[C@@H]3[C@@H](O)[C@H](N)C[C@H](N)[C@H]3O[C@H]3O[C@H](CO)[C@@H](O)[C@H](O)[C@H]3N)O[C@@H]2CO)[C@H](N)[C@@H](O)[C@@H]1O [Paromomycin, reference compound] |  | 18 ± 1 |  |  |  |  |  |  |  |  |  |  |  |  |  |  |  |  | 71 ± 3.3
CCCCCCCCCCCCCCCCOP(=O)([O-])OCC[N+](C)(C)C [Miltefosine, reference compound] |  |  |  |  |  |  |  |  |  |  |  |  |  |  |  |  |  |  | 66.6 ± 11.6
